Data reported in the NIST ThermoML archive (doi:10.1021/acs.jced.6b00269).

Conditions: for Normal melting temperature: Crystal, DTA; for viscosity / mass density: 101.33 kPa, Liquid; for viscosity: Cone and plate viscometry; for mass density: Vibrating tube method; for Glass transition temperature: DSC

CCC=C[P+](CC)(CC)CC.O=S(=O)([N-]S(=O)(=O)C(F)(F)F)C(F)(F)F
Conditions	Normal melting temperature [°C]
–	49

CCCCCCCCCCCCCC[P+](CCCCCC)(CCCCCC)CCCCCC.O=S(=O)([N-]S(=O)(=O)C(F)(F)F)C(F)(F)F
Conditions	Glass transition temperature [°C]	mass density [kg/m3]	viscosity [mPa·s]
–	-82	–	–
278.15 K	–	–	1210
283.15 K	–	1076.1	841
288.15 K	–	1072.4	594
293.15 K	–	1068.8	430
295.15 K	–	1067.3	–
298.15 K	–	1065.1	318
303.15 K	–	1061.5	241
308.15 K	–	1057.9	185
313.15 K	–	1054.4	145
318.15 K	–	1050.8	115
323.15 K	–	1047.3	92
328.15 K	–	1043.7	76
333.15 K	–	1040.1	63
338.15 K	–	1036.6	–
343.15 K	–	1033	–
348.15 K	–	1029.5	–
353.15 K	–	1026	–

CC[P+](CC)(CC)C1CCCC1.O=[N+]([O-])c1cn[n-]c1 [cyclopentyltriethylphosphonium 4-nitropyrazolide]
Conditions	Normal melting temperature [°C]
–	51

CCCCCCn1cc[n+](C)c1C.O=[N+]([O-])c1cn[n-]c1 [1-hexyl-2,3-dimethylimidazolium 4-nitropyrazolide]
Conditions	Glass transition temperature [°C]	mass density [kg/m3]	viscosity [mPa·s]
–	-47	–	–
278.15 K	–	–	14600
283.15 K	–	1129.4	6910
288.15 K	–	1126	3490
293.15 K	–	1122.4	1910
295.15 K	–	1121	–
298.15 K	–	1118.9	1110
303.15 K	–	1115.7	691
308.15 K	–	1112.4	450
313.15 K	–	1109.2	303
318.15 K	–	1106	213
323.15 K	–	1102.8	147
328.15 K	–	1099.7	112
333.15 K	–	1096.6	87
338.15 K	–	1093.5	69
343.15 K	–	1090.4	56
348.15 K	–	1087.4	–
353.15 K	–	1084.3	–

CCCCCCCCC[P+](CC)(CC)CC.O=[N+]([O-])c1cn[n-]c1 [triethylnonylphosphonium 4-nitropyrazolide]
Conditions	Glass transition temperature [°C]	Normal melting temperature [°C]	mass density [kg/m3]	viscosity [mPa·s]
–	-72	16	–	–
278.15 K	–	–	–	1370
283.15 K	–	–	1031	888
288.15 K	–	–	1027.9	593
293.15 K	–	–	1024.9	409
295.15 K	–	–	1023.6	–
298.15 K	–	–	1021.8	291
303.15 K	–	–	1018.8	213
308.15 K	–	–	1015.8	160
313.15 K	–	–	1012.9	123
318.15 K	–	–	1009.9	96
323.15 K	–	–	1007	77
328.15 K	–	–	1004	63
333.15 K	–	–	1001.1	52
338.15 K	–	–	998.2	–
343.15 K	–	–	995.3	–
348.15 K	–	–	992.4	–
353.15 K	–	–	989.5	–

CC(=O)[O-].CCCCCCn1cc[n+](C)c1 [3-hexyl-1-methylimidazolium acetate]
Conditions	mass density [kg/m3]	viscosity [mPa·s]
278.15 K	–	12300
283.15 K	1025.7	6460
288.15 K	1022.7	3550
293.15 K	1019.6	2060
295.15 K	1018.4	–
298.15 K	1016.6	1270
303.15 K	1013.5	816
308.15 K	1010.4	537
313.15 K	1007.4	372
318.15 K	1004.5	265
323.15 K	1001.5	194
328.15 K	998.5	147
333.15 K	995.5	113
338.15 K	992.6	90
343.15 K	989.6	–
348.15 K	986.7	–
353.15 K	983.7	–

CCCCCCCCCCCCCC[P+](CCCCCC)(CCCCCC)CCCCCC.Cc1ncc([N+](=O)[O-])[n-]1 [trihexyl(tetradecyl)phosphonium 2-methyl-5-nitroimidazolide]
Conditions	Glass transition temperature [°C]	mass density [kg/m3]	viscosity [mPa·s]
–	-79	–	–
278.15 K	–	–	5890
283.15 K	–	948.1	3730
288.15 K	–	945.1	2420
293.15 K	–	941.9	1620
295.15 K	–	940.6	–
298.15 K	–	938.7	1110
303.15 K	–	935.7	786
308.15 K	–	932.8	569
313.15 K	–	929.8	420
318.15 K	–	926.9	317
323.15 K	–	924	244
328.15 K	–	921.1	192
333.15 K	–	918.2	153
338.15 K	–	915.3	125
343.15 K	–	912.5	–
348.15 K	–	909.6	–
353.15 K	–	906.8	–
